Measured values from ChEMBL document CHEMBL5352445, “Design and synthesis of functionalized 4-aryl-Catechol derivatives as new antiinflammtory agents with in vivo efficacy” (Eur J Med Chem, 2022).
Active and inactive are the calls of the source. The rule behind the calls is not given here.

Tests used:
[1] = target: T1, Polyunsaturated fatty acid 5-lipoxygenase (Homo sapiens, UniProt P09917); assay: Inhibition of recombinant human 5-lipoxygenase expressed in Escherichia coli BL21 using arachidonic acid as substrate preincubated for 5 to 10 mins with compound followed by substrate addition and measured after 10 mins by HPLC analysis
T1 sequence (P09917 whole entry): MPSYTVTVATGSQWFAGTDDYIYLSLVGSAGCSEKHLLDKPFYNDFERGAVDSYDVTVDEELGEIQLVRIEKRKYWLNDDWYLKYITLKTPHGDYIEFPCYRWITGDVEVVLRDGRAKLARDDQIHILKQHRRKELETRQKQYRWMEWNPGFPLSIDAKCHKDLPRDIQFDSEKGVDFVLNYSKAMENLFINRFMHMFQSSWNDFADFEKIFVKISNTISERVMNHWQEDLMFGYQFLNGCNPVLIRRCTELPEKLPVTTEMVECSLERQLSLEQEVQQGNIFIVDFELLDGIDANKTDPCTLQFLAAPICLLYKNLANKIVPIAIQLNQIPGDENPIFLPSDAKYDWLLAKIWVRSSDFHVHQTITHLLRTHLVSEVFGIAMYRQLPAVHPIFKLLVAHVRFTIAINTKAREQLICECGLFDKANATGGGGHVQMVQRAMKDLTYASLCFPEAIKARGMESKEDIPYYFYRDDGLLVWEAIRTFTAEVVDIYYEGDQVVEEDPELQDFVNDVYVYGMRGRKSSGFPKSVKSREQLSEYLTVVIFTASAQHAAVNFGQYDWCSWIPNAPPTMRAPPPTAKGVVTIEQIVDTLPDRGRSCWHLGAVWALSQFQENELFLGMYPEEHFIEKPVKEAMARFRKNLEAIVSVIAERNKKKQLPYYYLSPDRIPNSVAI

[2] = Antioxidant activity assessed as quercetin equivalent of Ferric ion TPTZ reducing activity incubated for 6 mins by FRAP assay; type: functional
[3] = Antioxidant activity assessed as DPPH radical scavenging activity by ultraviolet spectrophotometric analysis; type: functional
[4] = target: T2, Polyunsaturated fatty acid lipoxygenase ALOX15 (Homo sapiens) (UniProt P16050); assay: Inhibition of 15-lipoxygenase in human PMNL cells using arachidonic acid as substrate assessed as residual activity at 10 uM preincubated with compound for 15 mins followed by A23187 and substrate addition and measured after 10 mins by HPLC analysis relative to control; type: cell-based; settings: time 25.0 min
T2 sequence (whole entry): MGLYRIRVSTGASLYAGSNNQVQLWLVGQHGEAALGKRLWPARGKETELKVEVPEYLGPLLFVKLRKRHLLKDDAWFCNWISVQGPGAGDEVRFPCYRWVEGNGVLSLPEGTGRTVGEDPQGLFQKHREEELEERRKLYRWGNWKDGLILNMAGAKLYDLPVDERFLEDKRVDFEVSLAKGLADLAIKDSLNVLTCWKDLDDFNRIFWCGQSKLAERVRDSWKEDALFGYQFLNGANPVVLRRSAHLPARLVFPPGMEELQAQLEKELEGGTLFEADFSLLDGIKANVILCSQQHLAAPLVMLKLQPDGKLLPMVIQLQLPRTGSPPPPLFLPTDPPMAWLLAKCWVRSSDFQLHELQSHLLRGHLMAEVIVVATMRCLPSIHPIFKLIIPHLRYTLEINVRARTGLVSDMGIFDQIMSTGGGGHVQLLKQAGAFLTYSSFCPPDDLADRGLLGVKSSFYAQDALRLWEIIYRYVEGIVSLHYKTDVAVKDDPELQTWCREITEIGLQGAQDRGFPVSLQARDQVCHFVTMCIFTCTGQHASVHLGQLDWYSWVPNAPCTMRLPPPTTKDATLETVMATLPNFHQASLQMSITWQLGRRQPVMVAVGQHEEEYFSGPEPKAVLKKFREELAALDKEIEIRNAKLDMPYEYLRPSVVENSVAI

[5] = target: T3, Polyunsaturated fatty acid lipoxygenase ALOX12 (Homo sapiens) (UniProt P18054); assay: Inhibition of 12-lipoxygenase in human PMNL cells using arachidonic acid as substrate assessed as residual activity at 10 uM preincubated with compound for 15 mins followed by A23187 and substrate addition and measured after 10 mins by HPLC analysis relative to control; type: cell-based; settings: time 25.0 min
T3 sequence (whole entry): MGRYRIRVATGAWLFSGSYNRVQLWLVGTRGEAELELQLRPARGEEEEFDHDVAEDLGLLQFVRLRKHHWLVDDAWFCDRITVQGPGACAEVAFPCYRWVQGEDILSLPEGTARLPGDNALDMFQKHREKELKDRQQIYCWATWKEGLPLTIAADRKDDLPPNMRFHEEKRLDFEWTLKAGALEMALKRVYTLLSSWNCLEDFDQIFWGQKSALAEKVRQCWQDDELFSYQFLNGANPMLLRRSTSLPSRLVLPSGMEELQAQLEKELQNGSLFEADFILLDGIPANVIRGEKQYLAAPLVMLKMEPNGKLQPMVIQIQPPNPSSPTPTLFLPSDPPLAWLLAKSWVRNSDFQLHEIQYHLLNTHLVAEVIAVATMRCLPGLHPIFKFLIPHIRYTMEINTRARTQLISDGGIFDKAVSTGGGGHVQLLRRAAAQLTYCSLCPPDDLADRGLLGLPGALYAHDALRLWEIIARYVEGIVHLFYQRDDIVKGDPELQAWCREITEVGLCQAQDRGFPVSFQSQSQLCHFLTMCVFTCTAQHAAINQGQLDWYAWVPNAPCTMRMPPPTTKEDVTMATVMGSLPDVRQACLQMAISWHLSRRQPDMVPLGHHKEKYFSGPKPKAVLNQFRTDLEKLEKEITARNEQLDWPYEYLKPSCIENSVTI

[6] = target: T1, Polyunsaturated fatty acid 5-lipoxygenase; assay: Inhibition of 5-lipoxygenase in human PMNL cells using arachidonic acid as substrate preincubated with compound for 15 mins followed by A23187 and substrate addition and measured after 10 mins by HPLC analysis; type: cell-based
[7] = target: T3, Polyunsaturated fatty acid lipoxygenase ALOX12 (Homo sapiens); assay: Inhibition of 12-lipoxygenase in human PMNL cells using arachidonic acid as substrate assessed as residual activity at 1 uM preincubated with compound for 15 mins followed by A23187 and substrate addition and measured after 10 mins by HPLC analysis relative to control; type: cell-based; settings: time 25.0 min
[8] = target: T1, Polyunsaturated fatty acid 5-lipoxygenase; assay: Inhibition of 5-LOX in human PMNL cells; type: cell-based
[9] = tested on: Mus musculus; assay: Antiinflammatory activity against zymosan-induced air pouch mouse model assessed as inhibition of cell migration at 0.1 mg/kg, ip preadministered with compound for 30 mins followed by sterile air injection three days once for 6 days and measured 4 hrs after zymosan administration by optical microscopic analysis; type: functional, organism-based; settings: time 148.5 hrs
[10] = tested on: Mus musculus; assay: Anti-inflammatory activity against OVA-sensitized isolated perfused lung mouse model assessed as reduction in Ach-induced bronchoconstriction at 0.1 to 1 mg/kg, ip preadministered with compound for 30 mins followed by OVA challenge and measured 24 hrs after last aerosolized OVA challenge; type: functional, organism-based; settings: dose 0.1-1 mg/kg, time 24.5 hrs
[11] = tested on: Mus musculus; assay: Antiinflammatory activity in carrageenan induced mouse paw edema model assessed as reduction in hind paw swelling at 0.1 to 10 mg/kg, ip preadministered with compound for 30 mins followed by carrageenan administration and measured upto 72 hrs by hydroplethismometer; type: functional, organism-based; settings: dose 0.1-10 mg/kg, time <= 72.5 hrs
[12] = target: T2, Polyunsaturated fatty acid lipoxygenase ALOX15 (Homo sapiens); assay: Inhibition of 15-lipoxygenase in human PMNL cells using arachidonic acid as substrate assessed as residual activity at 1 uM preincubated with compound for 15 mins followed by A23187 and substrate addition and measured after 10 mins by HPLC analysis relative to control; type: cell-based; settings: time 25.0 min

Compound	IC50 [1]	EC50 [2]	EC50 [3]	Activity [4]	Activity [5]	IC50 [6]	Activity [7]	IC50 [8]	Activity [9]	Activity [10]	Activity [11]	Activity [12]
Oc1ccc(-c2cccc(Cl)c2)cc1O	0.02 µM	610 µM	74 µM	84.1%	86.6%	0.21 µM	–	–	–	–	–	–
Oc1ccc(-c2ccc3c(c2)OCCO3)cc1O	0.04 µM	70 µM	71 µM	84.8%	89.6%	0.24 µM	74%	–	–	–	–	–
CCCCCCCCCCCCc1c(O)c(O)cc(OC)c1OC	–	–	–	–	–	–	–	0.03 µM	–	–	–	–
Oc1cc(O)c(O)c(CC2CCC3CCCCC3C2)c1O (stereo not drawn)	–	–	–	–	–	–	–	4.4 µM	–	–	–	–
CCCCCCCCCCCC1=C(O)C(=O)C=C(O)C1=O [EMBELIN]	–	–	–	–	–	–	–	1.5 µM	–	–	–	–
Oc1ccc(-c2ccccc2)cc1O	0.05 µM	190 µM	46 µM	112%	86.1%	0.47 µM	–	–	–	–	–	–
Oc1ccc(-c2cccc3c2sc2ccccc23)cc1O	0.007 µM	1380 µM	82 µM	70.5%	71.5%	0.25 µM	–	–	–	–	–	–
Oc1ccc(-c2cccc3c2oc2ccccc23)cc1O	0.076 µM	3080 µM	54 µM	70.3%	69.5%	0.21 µM	–	–	Active	Active	Active	–
Oc1ccc(-c2cc3ccccc3o2)cc1O	0.03 µM	460 µM	49 µM	71.1%	80.6%	1.11 µM	–	–	–	–	–	–
CCOc1ccc2ccccc2c1-c1ccc(O)c(O)c1	0.01 µM	970 µM	37 µM	82.8%	88.8%	0.27 µM	–	–	–	–	–	–
Oc1ccc(-c2cccc3c2Sc2ccccc2S3)cc1O	0.008 µM	–	–	–	–	0.23 µM	–	–	–	–	–	–
Oc1ccc(-c2ccc(O)c(O)c2)cc1	0.21 µM	650 µM	275 µM	80.8%	75%	1.33 µM	–	–	–	–	–	–
COC1=CC(=O)C(O)=C(C[C@]2(C)CC[C@@]3(C)C(C)=CCC[C@@H]3[C@@H]2C)C1=O	–	–	–	–	–	–	–	10 µM	–	–	–	–
O=C1C=C(O)C(=O)C(CC2CCC3CCCCC3C2)=C1O (stereo not drawn)	–	–	–	–	–	–	–	10 µM	–	–	–	–
Oc1ccc(-c2ccc(Cl)cc2)cc1O	0.02 µM	560 µM	64 µM	91.4%	74.9%	0.26 µM	–	–	–	–	–	–
CC(c1cc2ccccc2s1)N(O)C(N)=O (stereo not drawn)	–	–	–	–	–	–	–	–	–	Active	–	–
Oc1ccc(-c2ccc3ccccc3c2)cc1O	0.007 µM	370 µM	53 µM	57.2%	93.8%	0.32 µM	–	–	–	–	–	–
Oc1ccc(-c2c3ccccc3cc3ccccc23)cc1O	0.01 µM	890 µM	51 µM	–	49.4%	2.34 µM	–	–	–	–	–	114%
